Like-named read-outs stand apart in the source and are kept apart here. One block for each molecule: values may come before it.
Experiments:
IL-12 = assay: Inhibition of IL-12 production by mouse peritoneal macrophages (ELISA); type: cell-based, mice; conditions: Macrophage, 48 hours, read-out: Inhibitory rate (%) IL-12; for inhibition at 10 µM: 10 μM/L
Method: (§1) C57BL/6CrSlc male mice were intraperitoneally injected with 2.0 ml of 3% Brewer tioglycolate medium. Three days later, macrophages were collected from the abdominal cavity with 5.0 ml Hank's balanced salt solution, and then equally divided into each well of a 48-well plate using RPMI 1640 medium supplemented with 10% FBS (Fetal Bovine Serum), followed by incubation in a CO2 incubator for 1 hour. After the macrophages adhered to the walls of the plate, they were incubated for 48 hours in the presence of a test compound with different concentrations. Following the incubation, the supernatant was collected from each well, assayed for IL-6, IL-10 and L-12 by ELISA to determine inhibitory rates against the production of these interleukins.

[1] = system: Rats with Minimal Change Nephrosis; assay: Inhibitory effects on urinary proteins in rats with minimal change nephrosis (Puromycin Aminonucleoside); type: in vivo; conditions: S.D. male rats, PA 50 mg/kg i.v., test drug 2 mg/kg/day from day 6 to day 11, assayed at day 11
Method: Six week old S.D. male rats were intravenously injected with Puromycin Aminonucleoside (PA; SIGMA)at a dose of 50 mg/kg so as to develop nephrosis. Six days after PA treatment, the rats were administered with a test drug at a dose of 2 mg/kg/day by day 11. Each rat was assayed for an excreted urinary protein level at day 11 to determine an inhibitory rate.

IL-10 = assay: Inhibition of IL-10 production by mouse peritoneal macrophages (ELISA); type: cell-based, mice; conditions: Macrophage, 48 hours, read-out: Inhibitory rate (%) IL-10
Method: as §1

IL-6 = assay: Inhibition of IL-6 production by mouse peritoneal macrophages (ELISA); type: cell-based, mice; conditions: Macrophage, 48 hours, read-out: Inhibitory rate (%) IL-6
Method: as §1

Thromboxane A2 Synthase = target: T1, Thromboxane A2 Synthase (Rattus norvegicus, UniProt P49430); assay: Inhibitory effect on thromboxane A2 synthase: TXB2 in rat platelet rich plasma; type: cell-based, rats; conditions: 10 μmol/l, rat PRP
T1 construct: centrifuged at 1,300 rpm for 7 minutes to obtain platelet rich plasma (PRP); from tissue; host or cells: platelet rich plasma (washed platelets) from the abdominal aorta blood of Sprague-Dawley rats
T1 sequence (P49430 1-533): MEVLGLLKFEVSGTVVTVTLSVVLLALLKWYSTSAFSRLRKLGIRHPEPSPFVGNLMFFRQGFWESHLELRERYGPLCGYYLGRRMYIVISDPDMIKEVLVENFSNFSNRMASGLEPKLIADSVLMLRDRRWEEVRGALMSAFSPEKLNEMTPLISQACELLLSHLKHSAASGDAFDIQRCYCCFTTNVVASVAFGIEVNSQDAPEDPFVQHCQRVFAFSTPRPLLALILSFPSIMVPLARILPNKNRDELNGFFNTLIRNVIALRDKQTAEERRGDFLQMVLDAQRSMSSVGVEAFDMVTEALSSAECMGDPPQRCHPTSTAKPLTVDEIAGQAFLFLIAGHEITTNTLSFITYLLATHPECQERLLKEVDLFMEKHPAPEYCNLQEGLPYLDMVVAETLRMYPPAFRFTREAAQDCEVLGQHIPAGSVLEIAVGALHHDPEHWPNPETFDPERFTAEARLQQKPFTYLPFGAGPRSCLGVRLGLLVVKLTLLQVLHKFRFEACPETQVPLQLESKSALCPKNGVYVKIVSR
Method: Eight week old Sprague-Dawley male rats were used in this example. The rats were anesthetized with pentobarbital sodium. The blood was collected from the abdominal aorta using a heparinized syringe, and centrifuged at 1,300 rpm for 7 minutes to obtain platelet rich plasma (PRP). PRP was suspended in an equivalent volume of a buffer containing 25 mmol/l Tris-HCl, 130 mmol/l sodium chloride and 0.3 mmol/l EDTA (pH 7.4)(buffer A), followed by centrifugation at 4° C., at 1,500 rpm for 5 minutes. This procedure was repeated twice, and PRP was finally suspended in a buffer containing 25 mmol/l Tris-HCl, 130 mmol/l, 0.1% glucose and 0.1% albumin (pH7.4)(buffer B).
5×10^6 cells/mm^3 PRP preparation in buffer B was divided into each well of a 96-well plate in an amount of 150 μl/well. Each test substance was prepared at a final concentration of 10 μmol/l and added to the PRP preparation in an amount of 50 μl/well. Immediately after addition of the test substance, 5 μl of an aggregation-inducing agent, type IV collagen (1 mg/ml) or arachidonic acid (50 mmol/l), was added and incubated for 10 minutes. 20 μl of an EDTA-indomethacin solution was added to the each well to stop the reaction. The supernatant was assayed for thromboxane B2 (TXB2), stable metabolite of thromboxane A2 (TXA2), using a TXB2 measurement kit (Cayman).

melting point: 228 to 229 °C
Structure (SMILES): C/C(=C\C(=O)NCc1cccnc1)c1ccc(OCC(=O)O)cc1 [Example 86, [4-[(E)-1-methyl-2-[N-(3-pyridylmethyl)carbamoyl]ethenyl]phenoxy]acetic acid]
inhibition at 10 µM (IL-12): 48.4%

melting point: 212 °C
Structure (SMILES): Cl.O=C(O)CCc1ccc(/C=C/C(=O)NCc2cccnc2)cc1

inhibition at 10 µM (Thromboxane A2 Synthase; arachidonic acid, 10 minutes, read-out: TXB2 induced by arachidonic acid (Inhibitory rate; %)): 67% | inhibition at 10 µM (Thromboxane A2 Synthase; type IV collagen, 10 minutes, read-out: TXB2 induced by collagen (Inhibitory rate; %)): 32% | inhibition at 10 µM (Thromboxane A2 Synthase; summary of Table 3, read-out: inhibitory activity against TXA2 production mediated by collagen or arachidonate): ≥ 50%
Structure (SMILES): CCOC(=O)COc1ccc(/C=C/C(=O)NCc2cccnc2)cc1 [Example 1, Ethyl [4-[(E)-2-[N-(3-Pyridylmethyl)carbamoyl]ethenyl]phenoxy]acetate]
Inhibitory rate (%) of excreted urinary protein level [1]: 41% | inhibition at 1 µg/mL (IL-10; 1 μg/ml): 2.1% | inhibition at 5 µg/mL (IL-10; 5 μg/ml): 29.1% | inhibition at 10 µg/mL (IL-10; 10 μg/ml): 23.7% | inhibition at 1 µg/mL (IL-12; 1 μg/ml): 32.4% | inhibition at 5 µg/mL (IL-12; 5 μg/ml): 39.5% | inhibition at 10 µg/mL (IL-12; 10 μg/ml): 64.6% | inhibition at 1 µg/mL (IL-6; 1 μg/ml): 29.3% | inhibition at 5 µg/mL (IL-6; 5 μg/ml): 34.5% | inhibition at 10 µg/mL (IL-6; 10 μg/ml): 40.4%

melting point: 160 to 161 °C
Structure (SMILES): O=C(O)CSc1ccc(/C=C/C(=O)NCc2cccnc2)cc1 [Example 89, [[4-[(E)-2-[N-(3-pyridylmethyl)carbamoyl]ethenyl]phenyl]thio]acetic acid]
inhibition at 10 µM (IL-12): 51.1%

From patent US6413995B1, “Cinnamamide derivatives and drug compositions containing the same” (Tsumura & Co., priority 1999, dated 2002)
